According to patent publication US20150051202A1, “TRIAZOLOPYRAZINE DERIVATIVES” (Merck Patent GmbH, priority 2012, published 2015):
pIC50: −log10 of the molar value. Marks after values point to notes of the source that are not given here.

Key:
GCN2 = GCN2 (Homo sapiens, UniProt Q9P2K8); test: GCN2 enzyme assay (TR-FRET Lanthascreen, GFP-eIF2alpha substrate); type: biochemical
Source text: GCN2: Assay Principle & Conditions
This assay can quantificate the activity of the serin kinase GCN2 (general control non-derepressible-2).
This kinase is involved in the stress metabolism of cells. It is activated upon starvation (amino acid depletion). Its natural substrate is eIF2a (eukaryotic initiation factor 2 alpha subunit), a translation factor, which gets activated (phosphorylated) by GCN2 in case of an amino acid bottleneck in the cells. This in turn leads to a halt of the protein synthesis. Inhibition of GCN2 results in stopping this mechanism: The cell can not stop protein production upon “starvation” stress.
The assay is run in two steps: the enzymatic reaction and the detection step. In the first step GCN2 is incubated with 10 μM ATP and 80 nM of the GFP-labelled substrate eIF2alpha at room temperature.
The enzymatic reaction is stopped by addition of EDTA. The amount of phosphorylated eIF2alpha is determined by TR-FRET (Lanthascreen): A complex is formed consisting of antibody and GFP labelled phospho-eIF2a, which allows a FRET upon exitation at 340 nm.
Final Concentrations in the Enzymatic Reaction • Hepes, pH 7.0 50 mM • MgCl2 10 mM • MnCl2 5 mM • BSA 0.1% • DMSO 1% • ATP 10 uM • DTT 2 mM • GFP-eIF2a 80 nM (substrate) • GCN2 30 nM (enzyme)

SYK = biological target: T1, SYK (Homo sapiens, UniProt P43405); test: SYK enzyme assay (Flash plate assay / Caliper mobility shift assay); type: biochemical; settings: for SYK (enzyme assay) % at 3 μM: 100% corresponds to zero effect, −50% corresponds to IC50
T1 construct: purchased BPS Bioscience, CA, USA
Method: The kinase assay is performed either as 384-well Flashplate assay (for e.g. Topcount measurement) or as 384-well Image-Flashplate assay (for LEADseeker measurement).
2.5 nM SYK, 400 nM Biotin-Aha-Aha-[…]
and 10 μM ATP (spiked with 0.3 μCi 33P-ATP/well) are incubated in a total volume of 50 μl (60 mM Hepes, 10 mM MgCl2, 1.2 mM Dithiothreitol, 0.02% Brij35, 0.1% BSA, pH 7.5) with or without test compound for 1 hours at 30° C. The reaction is stopped with 25 μl 200 mM EDTA. After 30 Min at 30° C. the liquid is removed and each well washed thrice with 100 μl 0.9% sodium chloride solution. Non-specific reaction is determined in presence of 0.1 μM Staurosporine. Radioactivity is measured with Topcount (when using Flashplates) or with LEADseeker (when using Image-Flashplates) respectively. Results (e.g. IC50-values) are calculated with program tools provided by the IT-department (e.g. Symyx Assay Explorer, Genedata Screener).
Enzymatic Assays Using the Caliper LifeSciences Technology
The assays described here are performed on the Caliper Life Sciences LC3000 system This technology provides data on enzyme activity via measurement of the relative amounts of phosphorylated or unphosphorylated fluorescently labelled substrate peptide at the end of an enzymatic reaction.
These different states of peptide are resolved by applying a potential difference across the sample. The presence of the charged phosphate group on the product (as opposed to the substrate) causes a different peptide mobility between the two peptides. This is visualized by excitation of the fluorescent label on the substrate and product peptides and represented as peaks within the analysis software.
In order to measure inhibitor activity of kinase inhibitors on this technology, a TTP Mosquito liquid handling instrument is used to place 0.25 ul of the appropriate concentration of inhibitor in 100% DMSO (for a dose response curve calculation) into each well of a 384-well plate. To this reaction components are added to a final volume of 25 ul. The table below indicates the sequences and concentrations for the assays described in this report. Standard components are 1 mM DTT (Sigma, D0632), 1 mM MgCl2 (Sigma, M1028), 100 mM HEPES pH 7.5 (Calbiochem, 391338), 0.015% Brij-35 (Sigma, B4184).
The reaction is incubated for 90 min at 25 C, and then stopped by the addition of 70 ul of Stop buffer (100 mM HEPES pH 7.5, 0.015% Brij-35, 10 mM EDTA (Sigma, E7889)).
The plate is read on a Caliper LC 3000 in an Off-Chip mobility shift assay format, on a 12-sipper chip. Unphosphorylated substrate and phosphorylated product peptide resolve as separate peaks allowing direct measurement of percentage of conversion of substrate to product. The percent conversion can be plotted against concentration of inhibitor to produce a sigmoidal dose response curve, from which an IC50 can be calculated using GeneData Condoseo or a similar product.

Chain of GCN2 (Q9P2K8 whole entry): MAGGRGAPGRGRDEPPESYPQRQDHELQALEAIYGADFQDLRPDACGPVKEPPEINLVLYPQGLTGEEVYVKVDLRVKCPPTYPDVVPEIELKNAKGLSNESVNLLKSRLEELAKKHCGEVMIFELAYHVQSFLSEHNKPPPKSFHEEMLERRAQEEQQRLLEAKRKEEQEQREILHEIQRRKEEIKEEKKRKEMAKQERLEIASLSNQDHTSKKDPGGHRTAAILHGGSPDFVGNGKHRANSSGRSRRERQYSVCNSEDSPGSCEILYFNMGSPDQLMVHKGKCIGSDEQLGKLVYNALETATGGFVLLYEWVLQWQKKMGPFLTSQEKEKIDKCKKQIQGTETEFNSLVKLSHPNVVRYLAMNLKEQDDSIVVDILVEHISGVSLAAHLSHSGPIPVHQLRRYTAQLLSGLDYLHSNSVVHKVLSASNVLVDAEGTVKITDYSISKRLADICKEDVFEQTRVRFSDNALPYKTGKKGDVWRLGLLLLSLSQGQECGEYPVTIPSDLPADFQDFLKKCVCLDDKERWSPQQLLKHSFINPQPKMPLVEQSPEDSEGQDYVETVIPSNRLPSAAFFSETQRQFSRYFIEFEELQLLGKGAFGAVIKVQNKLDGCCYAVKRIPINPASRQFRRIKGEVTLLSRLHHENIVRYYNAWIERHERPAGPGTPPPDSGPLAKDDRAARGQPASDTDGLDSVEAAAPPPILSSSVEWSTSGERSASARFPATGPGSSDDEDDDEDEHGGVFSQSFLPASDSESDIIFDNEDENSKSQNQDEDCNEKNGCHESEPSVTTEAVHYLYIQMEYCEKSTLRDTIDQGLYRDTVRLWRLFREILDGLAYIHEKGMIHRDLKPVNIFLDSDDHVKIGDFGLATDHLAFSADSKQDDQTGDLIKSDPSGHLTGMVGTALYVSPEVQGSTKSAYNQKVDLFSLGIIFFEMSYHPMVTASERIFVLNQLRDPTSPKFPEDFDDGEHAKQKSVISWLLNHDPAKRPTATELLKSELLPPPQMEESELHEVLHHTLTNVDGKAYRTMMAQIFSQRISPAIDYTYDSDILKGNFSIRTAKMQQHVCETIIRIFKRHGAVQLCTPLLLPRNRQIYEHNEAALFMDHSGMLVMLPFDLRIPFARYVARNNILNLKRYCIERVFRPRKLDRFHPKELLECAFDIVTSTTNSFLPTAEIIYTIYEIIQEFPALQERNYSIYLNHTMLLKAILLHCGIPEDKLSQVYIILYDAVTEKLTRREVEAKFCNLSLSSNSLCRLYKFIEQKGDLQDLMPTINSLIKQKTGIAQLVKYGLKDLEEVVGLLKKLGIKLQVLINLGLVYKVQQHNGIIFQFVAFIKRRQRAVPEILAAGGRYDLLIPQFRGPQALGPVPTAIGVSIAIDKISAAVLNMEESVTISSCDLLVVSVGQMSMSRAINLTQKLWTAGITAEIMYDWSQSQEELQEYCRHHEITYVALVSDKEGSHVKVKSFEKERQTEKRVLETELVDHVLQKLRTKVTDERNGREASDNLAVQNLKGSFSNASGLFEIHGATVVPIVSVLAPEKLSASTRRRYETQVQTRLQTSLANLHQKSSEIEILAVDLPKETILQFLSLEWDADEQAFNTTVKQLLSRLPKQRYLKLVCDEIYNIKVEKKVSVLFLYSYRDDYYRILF

| Structure (SMILES) | pIC50 (GCN2) | SYK (enzyme assay) % at 3 μM (SYK) | pIC50 (SYK) |
| --- | --- | --- | --- |
| Cn1ncc2cc(-c3cncc4nc(Nc5ccc(S(C)(=O)=O)cc5)nn34)ccc21 [Compound A1, (4-methanesulfonyl-phenyl)-[5-(1-methyl-1H-indazol-5-yl)-[1,2,4]triazolo[1,5-a]pyrazin-2-yl]-amine] | 5.00 to 5.30 | −18@3 * % | – |
| COc1cccc(Nc2nc3cncc(-c4ccc5c(cnn5C)c4)n3n2)c1 [Compound A2] | > 6.00 | −29@3% | – |
| Cn1ncc2cc(-c3cncc4nc(Nc5cccnc5)nn34)ccc21 [Compound A3, [5-(1-methyl-1H-indazol-5-yl)-[1,2,4]triazolo[1,5-a]pyrazin-2-yl]-pyridin-3-yl-amine] | 5.30 to 6.00 | −9@3% | – |
| Cc1cc(Nc2nc3cncc(-c4ccc5c(cnn5C)c4)n3n2)ccc1N1CCN(C)CC1 [Compound A4, [5-(1-methyl-1H-indazol-5-yl)-[1,2,4]triazolo[1,5-a]pyrazin-2-yl]-[3-methyl-4-(4-methyl-piperazin-1-yl)-phenyl]-amine] | > 6.00 | – | > 6.00 |
| Cn1ncc2cc(-c3cncc4nc(Nc5ccc6c(c5)NC(=O)C6(C)C)nn34)ccc21 [Compound A5, 3,3-dimethyl-6-[5-(1-methyl-1H-indazol-5-yl)-[1,2,4]triazolo[1,5-a]pyrazin-2-ylamino]-1,3-dihydro-indol-2-one] | 5.30 to 6.00 | – | > 6.00 |
| CN(C)Cc1nc2cc(Nc3nc4cncc(-c5ccc6c(cnn6C)c5)n4n3)ccc2[nH]1 [Compound A6, (2-dimethylaminomethyl-1H-benzoimidazol-5-yl)-[5-(1-methyl-1H-indazol-5-yl)-[1,2,4]triazolo[1,5-a]pyrazin-2-yl]-amine] | > 6.00 | – | 5.30 to 6.00 |
| NS(=O)(=O)c1cccc(Nc2nc3cncc(-c4cnc5ccccc5c4)n3n2)c1 [Compound A7, 3-(5-quinolin-3-yl-[1,2,4]triazolo[1,5-a]pyrazin-2-ylamino)-benzenesulfonamide] | 5.00 to 5.30 | – | 5.30 to 6.00 |
| Cc1cc(Nc2nc3cncc(-c4cnc5ccccc5c4)n3n2)ccc1N1CCN(C)CC1 [Compound A8, [3-methyl-4-(4-methyl-piperazin-1-yl)-phenyl]-(5-quinolin-3-yl-[1,2,4]triazolo[1,5-a]pyrazin-2-yl)-amine] | 5.30 to 6.00 | – | 5.30 to 6.00 |
| CC1(C)C(=O)Nc2cc(Nc3nc4cncc(-c5cnc6ccccc6c5)n4n3)ccc21 [Compound A9, 3,3-dimethyl-6-(5-quinolin-3-yl-[1,2,4]triazolo[1,5-a]pyrazin-2-ylamino)-1,3-dihydro-indol-2-one] | 5.30 to 6.00 | – | 5.30 to 6.00 |
| CN(C)Cc1nc2cc(Nc3nc4cncc(-c5cnc6ccccc6c5)n4n3)ccc2[nH]1 [Compound A10, (2-dimethylaminomethyl-1H-benzoimidazol-5-yl)-(5-quinolin-3-yl-[1,2,4]triazolo[1,5-a]pyrazin-2-yl)-amine] | > 6.00 | – | 5.30 to 6.00 |
| Cn1cc(-c2cncc3nc(Nc4ccc(S(C)(=O)=O)cc4)nn23)cn1 [Compound A11, (4-methanesulfonyl-phenyl)-[5-(1-methyl-1H-pyrazol-4-yl)-[1,2,4]triazolo[1,5-a]pyrazin-2-yl]-amine] | 5.30 to 6.00 | – | 5.30 to 6.00 |
| Cn1cc(-c2cncc3nc(Nc4cccnc4)nn23)cn1 [Compound A12, [5-(1-methyl-1H-pyrazol-4-yl)-[1,2,4]triazolo[1,5-a]pyrazin-2-yl]-pyridin-3-yl-amine] | > 6.00 | – | – |
| Fc1cccc(Nc2nc3cnc(Cl)cn3n2)c1 [Compound A19] | 5.30 to 6.00 | – | – |
| Fc1ccc(Nc2nc3cnc(Cl)cn3n2)cc1 [Compound A21] | 5.30 to 6.00 | – | – |
| COc1cccc(Nc2nc3cnc(C#N)cn3n2)c1 [Compound A23] | 5.30 to 6.00 | – | – |
| COc1cccc(Nc2nc3cnc(C)cn3n2)c1 [Compound A24, (3-methoxy-phenyl)-(6-methyl-[1,2,4]triazolo[1,5-a]pyrazin-2-yl)-amine] | – | 1@3% | – |
| Fc1ccc(Nc2cn3nc(Nc4cccnc4)nc3cn2)cc1 [Compound A29, N6-(4-fluoro-phenyl)-N2-pyridin-3-yl-[1,2,4]triazolo[1,5-a]pyrazine-2,6-diamine] | 5.30 to 6.00 | – | – |
| c1cnc2ccc(-c3cncc4nc(Nc5ccc(N6CCOCC6)cc5)nn34)cc2c1 [Compound A33, (4-morpholin-4-yl-phenyl)-(5-quinolin-6-yl-[1,2,4]triazolo[1,5-a]pyrazin-2-yl)-amine] | 5.30 to 6.00 | – | – |

Other lines, results leading:

| pIC50 (GCN2) | SYK (enzyme assay) % at 3 μM (SYK) | pIC50 (SYK) | Structure (SMILES) |
| --- | --- | --- | --- |
| > 6.00 | – | – | Cn1ncc2cc(-c3cncc4nc(Nc5ccc6c(c5)CC(=O)N6)nn34)ccc21 [Compound A38, 5-[5-(1-methyl-1H-indazol-5-yl)-[1,2,4]triazolo[1,5-a]pyrazin-2-ylamino]-1,3-dihydro-indol-2-one] |
| > 6.00 | – | – | Cn1ncc2cc(-c3cncc4nc(Nc5cccc(S(N)(=O)=O)c5)nn34)ccc21 [Compound A39, 3-[5-(1-methyl-1H-indazol-5-yl)-[1,2,4]triazolo[1,5-a]pyrazin-2-ylamino]-benzenesulfonamide] |
| > 6.00 | – | – | Cc1cc(Nc2nc3cncc(-c4ccc(C(C)(C)C#N)cc4)n3n2)ccc1N1CCN(C)CC1 [Compound A40, 2-methyl-2-(4-{2-[3-methyl-4-(4-methyl-piperazin-1-yl)-phenylamino]-[1,2,4]triazolo[1,5-a]pyrazin-5-yl}-phenyl)-propionitrile] |
| > 6.00 | – | – | Cn1cc(-c2cncc3nc(Nc4ccc5c(c4)CC(=O)N5)nn23)cn1 [Compound A41, 5-[5-(1-methyl-1H-pyrazol-4-yl)-[1,2,4]triazolo[1,5-a]pyrazin-2-ylamino]-1,3-dihydro-indol-2-one] |
| > 6.00 | – | – | Cc1cc(Nc2nc3cncc(-c4cnn(C)c4)n3n2)ccc1N1CCN(C)CC1 [Compound A42, 5-(1-methyl-1H-pyrazol-4-yl)-N-(3-methyl-4-(4-methylpiperazin-1-yl)phenyl)-[1,2,4]triazolo[1,5-a]pyrazin-2-amine] |
| > 6.00 | – | – | Cc1cc(Nc2nc3cncc(-c4cccc(NS(C)(=O)=O)c4)n3n2)ccc1N1CCN(C)CC1 [Compound A43, N-(3-(2-((3-methyl-4-(4-methylpiperazin-1-yl)phenyl)amino)-[1,2,4]triazolo[1,5-a]pyrazin-5-yl)phenyl)methanesulfonamide] |
| 5.30 to 6.00 | – | – | Cc1cc(Nc2nc3cncc(-c4cccc(C(N)=O)c4)n3n2)ccc1N1CCN(C)CC1 [Compound A54, 3-{2-[3-methyl-4-(4-methyl-piperazin-1-yl)-phenylamino]-[1,2,4]triazolo[1,5-a]pyrazin-5-yl}-benzamide] |
| > 6.00 | – | – | CN1CCN(c2ccc(Nc3nc4cncc(-c5cnn(C)c5)n4n3)cn2)CC1 [Compound A90, [6-(4-methyl-piperazin-1-yl)-pyridin-3-yl]-[5-(1-methyl-1H-pyrazol-4-yl)-[1,2,4]triazolo[1,5-a]pyrazin-2-yl]-amine] |
| 5.30 to 6.00 | – | – | CNS(=O)(=O)c1cccc(-c2cncc3nc(Nc4ccc(N5CCN(C)CC5)c(OC)c4)nn23)c1 [Compound A96, 3-{2-[3-methoxy-4-(4-methyl-piperazin-1-yl)-phenylamino]-[1,2,4]triazolo[1,5-a]pyrazin-5-yl}-N-methyl-benzenesulfonamide] |
